According to patent publication US11779532B2, “Topical compositions and methods” (Mary Kay Inc., priority 2020, dated 2023):

Test system: MELANODERM™ MEL-300B tissue constructs
Test: Overall Melanin Level Assay (MELANODERM skin analog, Solvable Melanin Assay)
Format: cell-based, human
Conditions: for Absorbance (relative melanin content): MEL-300B tissue (donors with black complexion), 25 μl applied every other day for 10 days, read at 490 nm, 2% kojic acid solution, 0.4% hydroquinone solution, formulation of Table 1, untreated control 0.927
Experimental: This bioassay was used to analyze the effect of compounds on melanogenesis. […] The endpoint of this assay was spectrophotometric measurement of melanin production and cellular viability of tissue constructs derived from donors. The skin lightening efficacy of the formulation in Table 1 was evaluated using a skin analog sold by MatTek Corp. under the tradename MELANODERM™. Tissue constructs derived from donors with a black complexion (MELANODERM™ MEL-300B) were used. Tissue constructs derived from people with a black complexion have melanocytes with increased pigmentation versus those of people with a white or brown complexion melanocytes. MEL-300B tissue inserts were placed into the wells of 12-well plates filled with maintenance medium and pre-equilibrated in a humidified 37° C., 5% CO2 incubator overnight prior to applying treatment. After removal of the pre-equilibration medium, 25 μl of the formulation of Table 1 was applied directly to the MEL-300B stratum corneum by pipetting with a positive displacement pipette into the cell culture insert which contained the MEL-300B tissue inserts. Treatments were done in triplicates. 25 μl of 2% Kojic Acid (KA) solution and 25 μl of 0.4% Hydroquinone (HQ) solution were used as positive controls and 25 μl of sterile ultrapure water served as negative control. The MEL-300B tissue inserts were treated every other day for 10 consecutive days. Maintenance medium was replaced every other day with fresh medium. After treatment, the MEL-300B tissue inserts were submerged in phosphate buffered saline (PBS) for 10 minutes to remove any residual phenol red and test article from the tissue. After the MEL-300B tissue inserts were rinsed off, viability was measured on one of the tissues using the MTT viability assay (MTT Kit part #: MTT-100). The relative melanin content was measured using the Solvable Melanin Assay. Briefly, the tissues were removed from the inserts using fine-point forceps. Each tissue was blotted dry and placed in a 1.7 ml microfuge tube. […] Absorbance of the plate was read at 490 nm.

Structure (SMILES) | effect on melanin compared to untreated control / positive control (in words) (MEL-300B tissue (dark skin model), topical application) | Absorbance (relative melanin content)
Oc1ccc(O)cc1 [Hydroquinone] | increase melanin compared to the untreated control | 1.222
O=c1cc(CO)occ1O [Kojick Acid, Kojic Acid] | – | 0.629
